EC50 and IC50 data for 3 molecules are collected here from US20230227474A1, “COMPOSITIONS AND METHODS FOR CORRECTION OF ABERRANT SPLICING” (SKYHAWK THERAPEUTICS, INC., priority 2019, published 2023).

Experiment [1] concerns mHTT protein. In words: mHTT Protein Assay (2B7-MW1, MSD). Format: cell-based, human. To be noted: GM04724 (CAG 70/20) Huntington's disease patient lymphoblast cells, 48 hours, read-out: HTT Potency - Protein: EC50 mHTT (average). As for the experimental part: Compounds are tested on GM04724 (CAG 70/20) Huntington's disease patient lymphoblast cells at doses ranging from 10 μM to 0.6 nM. 4,500 cells/well are seeded in 384 well plates. One plate replica is carried out for parallel viability testing by CellTiter Glo (CTG). Compounds are incubated for 48 hours. mHTT protein levels are assessed by the 2B7-MW1 assay via Mesoscale Discovery (MSD) as previously reported (Macdonald et al., 2014). The antibody pair is comprised of previously characterized monoclonals (2B7 and MW1) interrogating two regions for HTT conformation and biological properties: the N17 domain and the polyQ domain (Baldo et al., 2012; Ko et., 2001). 2B7-MW1 is dependent on subject/animal specific levels of HTT at the time of treatment. 2B7-MW1 is dependent on polyQ expansion (e.g., the higher the expansion the higher the signal) and on mHTT size (e.g., a similar polyQ will give higher signal with smaller HTT size). The viability readout is carried out by CTG according to the manufacturer's instructions. The results are show in Table B-5.

Experiment [2] concerns SMN protein. As to the kind of experiment: SMN Protein Assay (MSD). It counts as cell-based, human. To be noted: SMA patient fibroblasts (GM03813), 48 hours, read-out: SMN2 Potency- Protein: Protein FL EC50 (average). As for the experimental part:
Compounds are tested on spinal muscular atrophy (SMA) patient fibroblasts (GM03813, Coriell) at doses ranging from 2.5 μM to 0.6 nM. 7000 cells/well are seeded in 96-well plates. Compounds are incubated for 48 hours and the cells are lysed with 100 μL of lysis buffer. 20 μL of lysate is used for SMN protein measurement by Mesoscale Discovery (MSD) assay developed by PharmOptima (Michigan). A standard curve prepared with SMN protein ranging from […] is used in each MSD plate to calculate the absolute SMN protein amount in each sample.

Experiment [3] concerns Huntingtin (HTT) transcripts. In words: Quantitative Splicing Assay (HTT). The conditions noted are these: Homo sapiens, GM04724 (CAG 70/20) Huntington's disease patient lymphoblasts, 24 h. Format: cell-based. As for the experimental part: GM04724 (CAG 70/20) Huntington's disease patient lymphoblasts (Coriell) are plated in 96-well v-bottom plates at 50,000 cells/well. Immediately after plating, cells are dosed with compound for 24 h at concentrations ranging from 2.5 uM to 0.15 nM (0.1% DMSO). Treated cells are lysed and cDNA synthesized using the Fast Advanced Cells-to-Ct kit (Thermofisher A35378) according to the manufacturer's instructions. 2 uL of each cDNA are used in qPCR reactions to confirm the compound-induced inclusion of a cryptic exon within intron 49 of the Huntingtin (HTT) transcripts. The qPCR reactions are prepared in 384-well plates in 10 uL volume, using TaqMan™ Fast Advanced Master Mix [ThermoFisher; 4444965] with primers and probes shown in the table below. Reactions are run in a Quant Studio 6 qPCR instrument with default settings.

Experiment [4] relates to SMN2. In words: Quantitative Splicing Assay (SMN). The conditions noted are these: Homo sapiens, Fibroblast, SMA patient fibroblasts (GM03813), 24 h. It counts as cell-based. As for the experimental part: Spinal muscular atrophy (SMA) patient fibroblasts (GM03813, Coriell) are plated in 96-well plates at 50,000 cells/well. Immediately after plating, cells are dosed with compounds for 24 h at concentrations ranging from 2.5 μM to 0.6 nM (0.1% DMSO). Treated cells are lysed and cDNA synthesized using the Fast Advanced Cells-to-Ct kit (Thermofisher A35378) according to the manufacturer's instructions. 2 μL of each cDNA are used in qPCR reactions. The qPCR reactions are prepared in 384-well plates in 10 μL volume, using TaqMan™ Fast Advanced Master Mix (ThermoFisher; 4444965) with primers and probes shown in the table below. Reactions are run in a Quant Studio 6 qPCR instrument with default settings.

The structures appear in SMILES notation. Like-named read-outs stand apart in the source and are kept apart here.

A word on the EC50: it is the concentration at which the effect is half-maximal. Broadly, the IC50 is the point on the concentration scale where inhibition reaches its midpoint.

Turning to `Oc1cc(-c2cn[nH]c2)ccc1-c1cc2c(nn1)N([C@@H]1C[C@H]3CC[C@@H](C1)N3)CCO2` [Compound 1, 2-(8-((1R,3s,5S)-8-azabicyclo[3.2.1]octan-3-yl)-7,8-dihydro-6H-pyridazino[4,3-b][1,4]oxazin-3-yl)-5-(1H-pyrazol-4-yl)phenol], the EC50 in experiment [1] and in experiment [2] was 501 to 10000 nM each time.

For `Oc1cc(-n2ccnc2)ccc1-c1cc2c(nn1)N([C@@H]1C[C@H]3CC[C@@H](C1)N3)CCO2` [Compound 3, 2-(8-((1R,3s,5S)-8-azabicyclo[3.2.1]octan-3-yl)-7,8-dihydro-6H-pyridazino[4,3-b][1,4]oxazin-3-yl)-5-(1H-imidazol-1-yl)phenol], the EC50 in experiment [1] and in experiment [2] was 501 to 10000 nM in each case.

For the molecule `Cn1cc(-c2ccc(-c3cc4c(nn3)N([C@@H]3C[C@H]5CC[C@@H](C3)N5)CCC4)c(O)c2)cn1` [Compound 2, 2-(8-((1R,3s,5S)-8-azabicyclo[3.2.1]octan-3-yl)-5,6,7,8-tetrahydropyrido[2,3-c]pyridazin-3-yl)-5-(1-methyl-1H-pyrazol-4-yl)phenol], the EC50 fell in the range of 0.01 to 15 nM in experiment [3] (qPCR HTTcryp49b (cryptic exon within intron 49), read-out: HTT Potency - Splicing: E49b EC50 (average)); 0.01 to 15 nM in experiment [3] (qPCR HTTex49_50, read-out: HTT Potency - Splicing: E49-50 EC50 (average)); 0.01 to 15 nM in experiment [1]; 16 to 50 nM in experiment [4] (qPCR SMN FL, read-out: SMN2 Potency- Splicing: Splicing FL EC50 (average)); 0.01 to 15 nM in experiment [2]. The IC50 in experiment [4] (qPCR SMN Δ7, read-out: SMN2 Potency- Splicing: Splicing D7 IC50 (average)) fell in the range of 0.01 to 15 nM.
